Test results: ChEMBL document CHEMBL1201862, “PubChem BioAssay data set” (2004)
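Step 1: Grow cells in 96-well plates. Step 2: Expose to compound for 48 hours at 5 concentrations. Step 3: Interpolate endpoints linearly; if unreached, use highest concentration. GI50 = concentration required for 50% inhibition of growth.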 Calls of active or inactive are those of the source. No stated cut-off is given here; in the data, active = GI50 up to about 1.1 µM and inactive = higher.

What was measured:
Assay in all cases: inhibition of tumour cell growth, NCI panel, 48 h
OVCAR-8 = system: OVCAR-8
NCI-H226 = system: NCI-H226
HCT-116 = system: HCT-116
M14 = system: M14
T47D = system: T47D
K562 = system: K562
A549 = system: A549
HCT-15 = system: HCT-15
SNB-19 = system: SNB-19
OVCAR-3 = system: OVCAR-3
IGROV-1 = system: IGROV-1
HCC 2998 = system: HCC 2998
HT-29 = system: HT-29
NCI-H460 = system: NCI-H460
OVCAR-4 = system: OVCAR-4
LOX IMVI = system: LOX IMVI
UACC-257 = system: UACC-257
SK-MEL-28 = system: SK-MEL-28
SK-MEL-2 = system: SK-MEL-2

Row | SMILES | GI50 (OVCAR-8) | GI50 (NCI-H226) | GI50 (HCT-116) | GI50 (M14) | GI50 (T47D) | GI50 (K562) | GI50 (A549) | GI50 (HCT-15) | GI50 (SNB-19) | GI50 (OVCAR-3) | GI50 (IGROV-1) | GI50 (HCC 2998) | GI50 (HT-29) | GI50 (NCI-H460) | GI50 (OVCAR-4) | GI50 (LOX IMVI) | GI50 (UACC-257) | GI50 (SK-MEL-28) | GI50 (SK-MEL-2)
1 | O=C(OCc1c(-c2ccccc2)nn(-c2ccccc2)c1COC(=O)Oc1ccccc1)Oc1ccccc1 | > 100 µM (inactive) | > 100 µM (inactive) | > 100 µM (inactive) | > 100 µM (inactive) | > 100 µM (inactive) | > 100 µM (inactive) | > 100 µM (inactive) | > 100 µM | > 100 µM (inactive) | > 100 µM (inactive) | > 100 µM (inactive) | > 100 µM (inactive) | > 100 µM (inactive) | > 100 µM (inactive) | > 100 µM (inactive) | > 100 µM (inactive) | > 100 µM (inactive) | > 100 µM (inactive) | 
2 | COC1/C=C/C(C)C(OC)CC(O)/C=C/C(C)C(C(C)C(OC)C(C)CCC(=O)C(C)C(C/C=C/N(C)C=O)OC)OC(=O)/C=C/C=C(\C)CC(OC)C(OC)C2=CC(=O)O[C@@H](C(C)C(OC)C1)[C@H]2O (stereo partly specified) | 0.0514 µM (active) | 0.0194 µM (active) | 0.00847 µM (active) | 0.0384 µM (active) | 0.0571 µM (active) |  | 0.0518 µM (active) | 0.015 µM | 0.0519 µM (active) | 0.00596 µM (active) | 0.0341 µM (active) | 0.0182 µM (active) | 0.0356 µM (active) | 0.0172 µM (active) | 0.0421 µM (active) | 0.00791 µM (active) | 0.0448 µM (active) | 0.0446 µM (active) | 
3 | C(/C=N/c1ccccc1)=C(/Nc1ccccc1)c1ccc2ccccc2c1 | 3.61 µM (inactive) | 1.77 µM (inactive) | 1.87 µM (inactive) | 1.87 µM (inactive) | 2.36 µM (inactive) | 0.897 µM (active) | 4.08 µM (inactive) | 1.06 µM | 2.29 µM (inactive) | 1.46 µM (inactive) | 2.88 µM (inactive) |  | 1.77 µM (inactive) | 2.81 µM (inactive) | 1.99 µM (inactive) | 1.53 µM (inactive) | 4.55 µM (inactive) | 0.231 µM (active) | 5.55 µM (inactive)
4 | COc1ccc2c(c1)CC[C@@H]1[C@@H]2CC[C@]2(C)[C@@H](O)/C(=C/c3ccncc3)C[C@@H]12 | 14.4 µM (inactive) | 20.1 µM (inactive) | 11 µM (inactive) | 11.3 µM (inactive) | 5.14 µM (inactive) |  | 9.84 µM (inactive) | 6.95 µM | 18.8 µM (inactive) | 18.5 µM (inactive) | 14.9 µM (inactive) | 8.59 µM (inactive) | 3.99 µM (inactive) | 14.2 µM (inactive) | 23.2 µM (inactive) |  | 16.6 µM (inactive) | 15.3 µM (inactive) | 16.3 µM (inactive)
5 | Nc1ncnc2c1ncn2C1OC(C(=O)OCCO)C(O)C1O (stereo unspecified) | > 100 µM (inactive) | > 100 µM (inactive) | > 100 µM (inactive) | > 100 µM (inactive) | > 100 µM (inactive) | > 100 µM (inactive) | > 100 µM (inactive) | > 100 µM | > 100 µM (inactive) | > 100 µM (inactive) | > 100 µM (inactive) |  | > 100 µM (inactive) | > 100 µM (inactive) | > 100 µM (inactive) | > 100 µM (inactive) | > 100 µM (inactive) | > 100 µM (inactive) | > 100 µM (inactive)
6 | CC1(C)C[C@H]2C3=CC[C@@H]4[C@@]5(C)CC[C@H](O)C(C)(C)[C@@H]5CC[C@@]4(C)[C@]3(C)C[C@@H](O)[C@@]23C[C@@H]1OC3=O | > 100 µM (inactive) |  | 74 µM (inactive) | > 100 µM (inactive) | 56.6 µM (inactive) | 97.1 µM (inactive) | 72.9 µM (inactive) | > 100 µM | > 100 µM (inactive) | > 100 µM (inactive) | > 100 µM (inactive) | 96.8 µM (inactive) | 50.2 µM (inactive) | 70.3 µM (inactive) | 37.2 µM (inactive) | > 100 µM (inactive) | > 100 µM (inactive) | > 100 µM (inactive) | > 100 µM (inactive)
